We go through 22 compounds from patent US9809604B2, “DGAT1 inhibitor and preparation method and use thereof” (Qingdao Huanghai Pharmaceutical Co., Ltd., priority 2013, dated 2017).

The structures appear in SMILES notation. Where two headings read alike, the source gives them in different places.

The target of the assay is T1, DGAT1 (Homo sapiens, UniProt O75907).
T1 sequence (O75907 1-488): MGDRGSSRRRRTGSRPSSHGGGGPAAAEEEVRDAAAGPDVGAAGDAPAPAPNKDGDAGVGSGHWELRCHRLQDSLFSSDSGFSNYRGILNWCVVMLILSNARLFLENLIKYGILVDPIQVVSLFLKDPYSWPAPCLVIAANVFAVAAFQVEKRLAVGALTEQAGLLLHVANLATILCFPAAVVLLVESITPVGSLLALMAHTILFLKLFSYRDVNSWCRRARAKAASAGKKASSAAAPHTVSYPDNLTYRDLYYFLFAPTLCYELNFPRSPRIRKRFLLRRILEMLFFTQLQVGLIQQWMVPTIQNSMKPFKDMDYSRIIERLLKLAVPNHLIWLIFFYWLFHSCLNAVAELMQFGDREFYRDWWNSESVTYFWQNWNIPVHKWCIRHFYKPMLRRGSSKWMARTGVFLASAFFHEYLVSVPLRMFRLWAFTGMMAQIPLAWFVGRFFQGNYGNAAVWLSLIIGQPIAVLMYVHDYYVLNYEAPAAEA
The assay can be described thus: Human DGAT1 IC50 enzyme assay (Flashplate, 14C-labeled acyl-CoA). It counts as biochemical. Also on record: made in house. How it is done: The ability of compounds to inhibit DGAT enzyme activity is determined by calculating IC50 values of test compounds. Ki values of DGAT1 are calculated as follows: Cheng-Prusoff equation: Ki=IC50/(1+[S]/Km)
(1) Human DGAT1 IC50 (nM) Experiment
Human DGAT1 activity was determined as follows:
Expressing human DGAT1 enzyme, used diacylglycerol and 14C-labeled acyl-CoA as the substrate, choose PE Company Flashplate testing board to build DGAT1 enzyme reaction system. 14C-labeled acyl-CoA binds to diacylglycerol by covalent bonding after enzymology reaction, and generates the product of 14C-labeled triglyceride. 14C-labeled acyl-CoA substrate is dissolved in reaction solution and 14C-labeled triglyceride product combine with phospholipids of Flashplate plate bottom layer, thus effectively separate labeled substrates and products. The radioactive of 14C-labeled triglyceride which is combined with phospholipid layer is counted, and the potencies of DGAT-1 inhibition for the compounds are determined by calculating the IC50 values.

[1] abbreviates: average of first and second, read-out: hDGAT1 IC50(nM) Average.
Setting [2] is: first determination, read-out: hDGAT1 IC50(nM) First.
The mark [3] stands for this setting: second determination, read-out: hDGAT1 IC50(nM) Second.

Regarding `Nc1ncnc2c1C(=O)N(c1ccc3c(c1)CCC(OCC(F)(F)F)C3)CCO2` (single isomer, unassigned) [Compound 108 (peak2), 4-amino-6-(6-(2,2,2-trifluoroethoxy)-5,6,7,8-tetrahydonaphthalen-2-yl)-7,8-dihydropyrimido[5,4-f][1,4]oxazepin-5-(6H)-one], the IC50 is, setting by setting: under setting [1], 52.6 nM; under setting [2], 56.4 nM; under setting [3], 48.8 nM.
For `Nc1ncnc2c1C(=O)N(c1ccc3c(c1)CCC(OCC(F)(F)F)C3)CCO2` (single isomer, unassigned; peak1) [Compound 105 (peak1), 4-amino-6-(6-(2,2,2-trifluoroethoxy)-5,6,7,8-tetrahydonaphthalen-2-yl)-7,8-dihydropyrimido[5,4-f][1,4]oxazepin-5-(6H)-one] the same measures were 73.3 nM, 103 nM and 43.3 nM.
The like results for `Nc1ncnc2c1C(=O)N(c1ccc(N3CCN(CC(=O)O)C3=O)c(Cl)c1)CCO2` [Compound 1, 2-(3-(4-(4-amino-5-oxo-7,8-dihydropyrimido[5,4-f][1,4]oxazepin-6(5H)-yl)-2-chlorophenyl)-2-oxoimidazolidin-1-yl)acetic acid] were, in that order, 48.1 nM, 53.3 nM and 43 nM.
In the case of `Nc1ncnc2c1C(=O)N(c1ccc(N3CCN(CC(=O)O)C3=O)c(F)c1)CCO2` [Compound 2, 2-(3-(4-(4-amino-5-oxo-7,8-dihydropyrimido[5,4-f][1,4]oxazepin-6(5H)-yl)-2-fluorophenyl)-2-oximidazolidin-1-yl)acetate acid], the IC50 by setting is: under setting [1], 52.9 nM; under setting [2], 64.1 nM; under setting [3], 41.6 nM.
`Cc1cc(N2CCOc3ncnc(N)c3C2=O)ccc1N1CCN(CC(=O)O)C1=O` [Compound 3, 2-(3-(4-(4-amino-5-oxo-7,8-dihydropyrimido[5,4-f][1,4]oxazepin-6(5H)-yl)-2-methylphenyl)-2-oxoimidazolidin-1-yl)acetate acid]: the IC50 amounted to 65.2 nM under setting [1], 60.9 nM under setting [2] and 69.5 nM under setting [3].
As for `CCc1cc(N2CCOc3ncnc(N)c3C2=O)cc(C)c1N1CCN(CC(=O)O)C1=O` [Compound 4, 2-(3-(4-(4-amino-5-oxo-7,8-dihydropyrimido[5,4-f][1,4]oxazepin-6(5H)-yl)-2-ethyl-6-methylphenyl)-2-oxoimidazolidin-1-yl)acetic acid], the IC50 under setting [1] was 39.5 nM, the IC50 under setting [2] is 46.2 nM and the IC50 under setting [3] was 32.9 nM.
The like results for `CCc1cc(N2CCOc3ncnc(N)c3C2=O)ccc1N1CCN(CC(=O)O)C1=O` [Compound 5, 2-(3-(4-(4-amino-5-oxo-7,8-dihydropyrimido[5,4-f][1,4]oxazepin-6(5H)-yl)-2-ethylphenyl)-2-oxoimidazolidin-1-yl)acetic acid] were, in that order, 60.3 nM, 51.6 nM and 69 nM.
With `Nc1ncnc2c1C(=O)N(c1ccc(N3CCN(CCC(=O)O)C3=O)c(Cl)c1)CCO2` [Compound 6], the IC50 reads like this: under setting [1], 31.5 nM; under setting [2], 24.4 nM; under setting [3], 38.5 nM.
For `Nc1ncnc2c1C(=O)N(c1ccc(N3CCN(CC(=O)O)C3=O)c(OC(F)(F)F)c1)CCO2` [Compound 7, 2-(3-(4-(4-amino-5-oxo-7,8-dihydropyrimido[5,4-f][1,4]oxazepin-6(5H)-yl)-2-(trifluoromethoxy)phenyl)-2-oxoimidazolidin-1-yl)acetic acid], the IC50 under setting [1] came out at 36.9 nM, the IC50 under setting [2] is 43.5 nM and the IC50 under setting [3] was 30.4 nM.
The like results for `Nc1ncnc2c1C(=O)N(c1ccc(N3CCN(CC(F)(F)F)C3=O)c(Cl)c1)CCO2` [Compound 8, 4-amino-6-(3-chloro-4-(2-oxo-3-(2,2,2-trifluoroethyl)imidazolidin-1-yl)phenyl)-7,8-dihydropyrimido[5,4-f][1,4]oxazepin-5(6H)one] were, in that order, 38.9 nM, 41.9 nM and 35.9 nM.
For `CCc1cc(N2CCOc3ncnc(N)c3C2=O)cc(CC)c1N1CCN(CC(=O)O)C1=O` [Compound 19] the same measures were 101 nM, 136 nM and 66.5 nM.
For `Nc1ncnc2c1C(=O)N(c1ccc(N3CCN(CC(=O)O)C3=O)c(C(F)(F)F)c1)CCO2` [Compound 25, 2-(3-(4-(4-amino-5-oxo-7,8-dihydropyrimido [5,4-f][1,4]oxazepin-6(5H)-yl)-2-(trifluoromethyl)phenyl)-2-oxoimidazolidin-1-yl)acetic acid], the half-maximal inhibitory concentration (IC50) worked out at 58.9 nM under setting [1], 57.2 nM under setting [2] and 60.7 nM under setting [3].
The like results for `Cc1cc(N2CCOc3ncnc(N)c3C2=O)cc(F)c1N1CCN(CC(=O)O)C1=O` [Compound 26, 2-(3-(4-(4-amino-5-oxo-7,8-dihydropyrimido [5,4-f][1,4]oxazepin-6(5H)-yl)-2-fluoro-6-methylphenyl)-2-oxoimidazolidin-1-yl) acetic acid] were, in that order, 50.6 nM, 41.3 nM and 60 nM.
For `Cc1cc(N2CCOc3ncnc(N)c3C2=O)cc(Cl)c1N1CCN(CC(=O)O)C1=O` [Compound 27] the same measures were 62.4 nM, 69 nM and 55.7 nM.
With `Nc1ncnc2c1C(=O)N(c1ccc(-n3ccn(CC(=O)O)c3=O)c(Cl)c1)CCO2` [Compound 28, 2-(3-(4-(4-amino-5-oxo-7,8-dihydropyrimido [5,4-f][1,4]oxazepin-6(5H)-yl)-2-chlorophenyl)-2-oxo-2,3-dihydro-1H-imidazol-1-yl)acetic acid], the IC50 stood at 41.8 nM under setting [1], 45.6 nM under setting [2] and 37.9 nM under setting [3].
For `CC(C)CN1CCN(c2ccc(N3CCOc4ncnc(N)c4C3=O)cc2Cl)C1=O` [Compound 29, 4-amino-6-(3-chloro-4-(3-isobutyl-2-oxoimidazolidin-1-yl)phenyl)-7,8-dihydropyrimido [5,4-f][1,4]oxazepin-5(6H)-one] the same measures were 35.2 nM, 37.4 nM and 32.9 nM.
For `Nc1ncnc2c1C(=O)N(c1ccc(N3CCN(CC4CC4)C3=O)c(Cl)c1)CCO2` [Compound 30, 4-amino-6-(3-chloro-4-(3-(cyclopropylmethyl)-2-oxoimidazolidin-1-yl)phenyl)-7,8-dihydropyrimido [5,4-f][1,4]oxazepin-5(6H)-one] the same measures were 24.4 nM, 25.4 nM and 23.4 nM.
As for `CC(C)(F)CN1CCN(c2ccc(N3CCOc4ncnc(N)c4C3=O)cc2Cl)C1=O` [Compound 31, 4-amino-6-(3-chloro-4-(3-(2-fluoro-2-methylpropyl)-2-oxoimidazolidin-1-yl)phenyl)-7,8-dihydropyrimido[5,4-f][1,4]oxazepin-5(6H)-one], the IC50 under setting [1] was 23.5 nM, the IC50 under setting [2] is 23.6 nM and the half-inhibitory concentration (IC50) under setting [3] amounted to 23.4 nM.
For `CC(C)(C(=O)O)n1cc(-c2ccc(N3CCOc4ncnc(N)c4C3=O)cc2Cl)cn1` [Compound 33, 2-(4-(4-(4-amino-5-oxo-7,8-dihydropyrimido[5,4-f][1,4]oxazepin-6(5H)-yl)-2-chlorophenyl)-1H-pyrazol-1-yl)-2-methylpropanoic acid] the same measures were 36.8 nM, 26.9 nM and 46.7 nM.
The like results for `CC(C(=O)O)n1cc(-c2ccc(N3CCOc4ncnc(N)c4C3=O)cc2Cl)cn1` (stereo not drawn) [Compound 34, 2-(4-(4-(4-amino-5-oxo-7,8-dihydropyrimido[5,4-f][1,4]oxazepin-6(5H)-yl)-2-chlorophenyl)-1H-pyrazol-1-yl) propanoic acid] were, in that order, 55.8 nM, 78 nM and 33.6 nM.
The like results for `Nc1ncnc2c1C(=O)N(c1ccc(-c3cnn(CCC(=O)O)c3)c(Cl)c1)CCO2` [Compound 35, 3-(4-(4-(4-amino-5-oxo-7,8-dihydropyrimido[5,4-f][1,4]oxazepin-6(5H)-yl)-2-chlorophenyl)-1H-pyrazol-1-yl)propanoic acid] were, in that order, 25.8 nM, 24.8 nM and 26.7 nM.
For `Cc1nn(CC(=O)O)cc1-c1ccc(N2CCOc3ncnc(N)c3C2=O)cc1Cl` [Compound 36, 2-(4-(4-(4-amino-5-oxo-7,8-dihydropyrimido[5,4-f][1,4]oxazepin-6(5H)-yl)-2-chlorophenyl)-3-methyl-1H-pyrazol-1-yl)acetic acid], the IC50 runs as follows: under setting [1], 29.3 nM; under setting [2], 37.7 nM; under setting [3], 21 nM.

The IC50 is the point on the concentration scale where inhibition reaches its midpoint.
